{
  "source": "patent US5451520A",
  "about": "“Creatine amidinohydrolase from alkaligenes sp. ks-85 ferm bp-4487” (Kikkoman Corporation, priority 1993, dated 1995)",
  "key": {"[1]": {"target": "T1, conventional creatine amidinohydrolase (CRH-211, a product of Toyobo Co., Ltd.) (Pseudomonas putida, UniProt P38488)", "T1 construct": "purchased Toyobo Co., Ltd. CRH-211", "T1 sequence (P38488 1-403)": "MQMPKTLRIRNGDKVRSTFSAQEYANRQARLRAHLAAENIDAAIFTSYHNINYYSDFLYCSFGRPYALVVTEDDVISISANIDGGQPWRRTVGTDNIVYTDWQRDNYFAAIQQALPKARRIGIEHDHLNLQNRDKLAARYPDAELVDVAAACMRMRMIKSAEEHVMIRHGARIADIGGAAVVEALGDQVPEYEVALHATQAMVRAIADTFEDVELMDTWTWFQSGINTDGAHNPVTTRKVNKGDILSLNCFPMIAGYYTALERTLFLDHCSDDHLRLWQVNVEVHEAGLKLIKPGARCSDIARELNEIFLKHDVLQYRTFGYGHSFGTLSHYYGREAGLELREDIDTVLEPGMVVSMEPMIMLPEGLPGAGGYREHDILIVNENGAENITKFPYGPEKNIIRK", "details": "conventional enzyme; substrate creatine; cited from earlier work"}, "[2]": {"tested_on": "creatine amidinohydrolase from Alkaligenes sp. KS-85 (FERM BP-4487), the present enzyme", "experiment": "Km determination by Lineweaver-Burk plot, creatine substrate", "format": "biochemical", "details": "pH 7.7, 37° C.", "procedure": "The enzyme activity forming […] yellow pigment in 1 minute under the following conditions is referred to as 1 U of the present enzyme.\n6.63 g of creatine is dissolved in 500 ml of 50 mM buffer, pH 7.7.\n1) 0.9 ml of the solution 1 is pre-incubated at 37° C. for 5 min.\n2) 0.1 ml of an enzyme solution (adjusted in the range of approx. 1-2 U/ml) is mixed therewith and allowed to react at 37° C. for 10 min.\n3) After 10 min. reaction, 2 ml of the solution 2 is mixed therewith.\n4) After being mixed with the solution 2, the mixture is allowed to stand at 25° C. for 20 min., and the absorbance at 435 nm is determined (the OD sample)."}},
  "data": [
    {"compound": "CN(CC(=O)O)C(=N)N", "note": "[creatine]", "values": [
      {"measurement": "Km", "setting": "[1]", "value": 24, "unit": "mM"},
      {"measurement": "Km", "setting": "[2]", "value": 13, "unit": "mM"}
    ]}
  ]
}
